# “Also recorded” adds a separate entry of the source.
# Key:
# A549 cells = experiment: MTT assay, A549; type: cell-based; conditions: Homo sapiens, 72 h, lung adenocarcinoma, read-out: Cytotoxic activity IC50, A549
# Procedure: (§1) The cell lines used in the cytotoxicity study, besides MCF-12A, were purchased from European Collection of Cell Culture (ECACC, Salisbury, UK): HEK293 (human embryonic kidney, ATTC no. CRL-1573), A549 (Human lung carcinoma, ECACC no. 86012804), CCD39Lu (Human lung fibroblasts, ECACC no. 90110512), MCF-7 (Human breast adenocarcinoma, ECACC no. 86012803) and MDA-MB-231 (Human breast adenocarcinoma ECACC no. 92020424). Cell lines were cultured in DMEM medium without phenol red and supplemented with 10% (v/v) FBS, 1% penicillin-streptomycin and 1% L-glutamine. MCF-12A (ATTC no. […]) was purchased from American Type Culture Collection (ATCC Manassas, VA 20110 USA). MCF-12A cells were kept in 1:1 mixture of Dulbecco’s modified Eagle’s medium and Ham’s F12 medium, 20 ng/ml human epidermal growth factor, 100 ng/ml cholera toxin, 0.01 mg/ml bovine insulin, 500 ng/ml hydrocortisone and 5% horse serum. All cell lines were cultured at 37°C, in a humidified atmosphere containing 5% CO2.
# (§2) Compounds were dissolved in DMSO to the final concentration of […]. A549, CCD39Lu, MCF-7, MDA-MB-231 and MCF-12A cells were seeded in 96 wells plates at density 2x10^4 cells/well and incubated overnight as described above. Subsequently, cells were treated with tested compounds at concentrations: 100 μM; 50 μM; 25μM; 12.5μM; 6 μM; 3 μM; 1.5 μM. […] Cells were incubated 72 h at 37°C in a humidified atmosphere containing 5% CO2 in the cell culture media appropriate for each cell line. Then, the medium was aspirated and 170 μl MTT solution (5mg/ml) was added to each well. Plates were incubated for 2 hours at 37°C, and then plates were centrifuged at 1200 rpm for 3 minutes. The formazan crystals were dissolved in 200 μl DMSO and plates were further agitated on a plate shaker at 300–500 rpm for 10 minutes. Absorbance at 570 nm (with reference wavelenght 650 nm) was measured using a plate reader (Biotek Instruments, Elx-800). Cell viability was calculated as a percentage relative to the control.
# MDA-MB-231 cells = experiment: MTT assay, MDA-MB-231; type: cell-based, human; conditions: for IC50: Homo sapiens, MDA-MB-231, 72 h, estrogen independent breast adenocarcinoma, read-out: Cytotoxic activity IC50, MDA-MB-231
# Procedure: as §1, §2
# MCF-7 cells [1] = experiment: MTT assay, MCF-7; type: cell-based, human; conditions: for IC50: Homo sapiens, MCF7, 72 h, estrogen dependent breast adenocarcinoma, read-out: Cytotoxic activity IC50, MCF-7; for Activity in MTT assay (in words), MCF-7: 72 h
# Procedure: as §1, §2
# MTT assay, MCF-12A = type: cell-based; conditions: human, MCF-12A cells (non-tumorigenic breast epithelial), read-out: Cytotoxic activity IC50, MCF-12A
# Procedure: as §1, §2
# MTT assay, CCD39Lu = type: cell-based; conditions: human, CCD39Lu cells (non-tumorigenic lung fibroblasts), read-out: Cytotoxic activity IC50, CCD39Lu
# Procedure: as §1, §2
# human ERα receptor = target: T1, human ERα receptor (Homo sapiens, UniProt P03372); experiment: Estrogen Receptor luciferase assay in HEK293 cells transfected with ERα; type: cell-based; conditions: HEK293 transfected with ERα and luciferase reporter, compared with estradiol, Fig 3A/3B
# T1 construct: host or cells: HEK293
# T1 sequence (P03372 1-595): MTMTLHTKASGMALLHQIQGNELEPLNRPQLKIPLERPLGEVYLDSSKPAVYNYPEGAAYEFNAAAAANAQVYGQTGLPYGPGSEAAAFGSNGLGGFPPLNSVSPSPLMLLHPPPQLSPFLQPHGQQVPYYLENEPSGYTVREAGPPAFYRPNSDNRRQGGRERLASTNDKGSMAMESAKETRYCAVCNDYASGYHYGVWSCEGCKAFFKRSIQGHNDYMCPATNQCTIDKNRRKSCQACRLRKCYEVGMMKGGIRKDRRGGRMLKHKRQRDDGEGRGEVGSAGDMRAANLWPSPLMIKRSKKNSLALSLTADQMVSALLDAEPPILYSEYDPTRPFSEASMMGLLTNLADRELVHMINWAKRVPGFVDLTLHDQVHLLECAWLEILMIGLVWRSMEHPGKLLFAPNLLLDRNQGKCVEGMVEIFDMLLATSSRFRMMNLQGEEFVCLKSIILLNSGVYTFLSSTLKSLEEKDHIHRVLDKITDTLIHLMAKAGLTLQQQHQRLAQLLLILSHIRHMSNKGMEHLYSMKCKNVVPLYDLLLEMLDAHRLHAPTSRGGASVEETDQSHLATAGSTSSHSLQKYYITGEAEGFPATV
# Description: To obtain a eukaryotic vector expressing only the ER-α nuclear receptor, a construct was designed by cloning a KpnI-BamHI fragment from plasmid pEGFP-C1-ERα containing the ERα coding sequence that includes a stop signal into the pEGFP-N3 plasmid (Clontech Laboratories, Palo Alto, CA) under the control of the CMV promoter. This construction was termed pEGFP-N-ERα, and although it encoded both human ERα receptor and GFP protein, only the former is expressed. For mock transfections, pEGFP-N3 plasmid was digested with BglII and NotI and religated after polishing DNA ends to remove GFP coding sequence. Plasmid sequence was confirmed by automatic sequencing. Prior to transfection, cells were seeded in 48 well plates at density of 1.5 x 10^4 cells/well and incubated for 24 h to reach a cell confluence of 80–90%. […] MCF-7 cells, which endogenously express ERα receptor, were transfected with p3xERRE/ERE-luciferase plus the pRLTK Renilla luciferase control plasmid (95:5). Firefly and Renilla luciferase activities were measured using the Dual Luciferase Assay System (Promega, Madison, WI, USA), following a standard protocol using a Sirius L luminometer (Berthold Technologies, Bad Wildbad, Germany). Data were expressed as relative changes in luciferase activity and normalized to 100%.
# MCF-7 cells [2] = experiment: Sulphorodamine B assay, MCF-7; type: cell-based, human; conditions: 72 h, Fig 2
# Procedure: In addition to the MTT assay, cell viability was measured by the Sulphorodamine B assay according to Vichai and Kirtikara. The MCF-7 and MDA-MB-23 cells were seeded and treated as for the MTT assay. After incubation the medium was removed and the cells were fixed with cold (4°C) trichloroacetic acid (final concentration 10%) for 1h. Than plates were washed 4 times with water and stained for 30 min, following by staining with sulforhodamine B (SRB) 0.4% in 1% acetic acid solution at room temperature for 20 min. After staining, the SRB solution was removed and the plates washed 5 times with 1% acetic acid dried. Bound SRB was solubilized with 200 μl 10 mM unbuffered Tris-base solution and plates were shaked for 10 min. The absorbance at 510 nm was measured using a plate reader (Biotek Instruments, Elx-800).
# MCF-7 cells [3] = experiment: LDH release assay, MCF-7; type: cell-based, human; conditions: 72 h, Fig 2
# Procedure: Cytotoxicity was evaluated by measuring the cell membrane permeability, using a LDH assay kit purchased from Cayman Chemical (Ann Arbor USA). The LDH assay was performed for MCF-7 and MDA-MB-231 cells (seeded at 2×10^4 density). As a positive control cell permeabilization with 1%Triton X-100 was used. The assay was performed 72h after start the incubation. Briefly, the plates were centrifuged at 400 ×g for 5 minutes, and 100 μL of supernatant were transferred from each well to the new 96-well plate and analyzed according to the manufacturer’s protocol. 100 μL of reaction mixture, containing lactic acid, NAD^+, tetrazolium salt and diaphorase, was added to each well. Plates were incubated on an orbital shaker for 30 minutes at room temperature and the absorbance at 490 nm was measured with a plate reader (Biotek Instruments, Elx-800). Results were expressed as a percentage of the total value of the positive control.
SMILES,IC50 (A549 cells) [µM],IC50 (MDA-MB-231 cells) [µM],IC50 (MCF-7 cells [1]) [µM],"IC50 at 72 h (MTT assay, MCF-12A) [µM]","IC50 at 72 h (MTT assay, CCD39Lu) [µM]","Toxicity/effect in MTT assay (in words), MDA-MB-231 (MDA-MB-231 cells; 72 h)","Activity in MTT assay (in words), MCF-7 (MCF-7 cells [1])",ER dependent transcriptional activity (human ERα receptor),"Effect in SRB assay, MCF-7 (MCF-7 cells [2])","LDH release, MCF-7 (MCF-7 cells [3])"
O=C(Nc1ccccc1C(=O)Nc1cc(F)c(F)c(F)c1)c1cc(F)c(F)c(F)c1 [Compound 9],> 100,> 100,> 100,> 100,> 100,–,–,–,–,–
Fc1cc(NC(=S)c2ccccc2NC(=S)c2cc(F)c(F)c(F)c2)cc(F)c1F [Compound 10],0.41,0.52,0.37,1.22,0.76,significant degree of toxicity,significant activity,–,–,–
O=C(Nc1cc(F)c(F)c(F)c1F)c1ccccc1NC(=O)c1cc(F)c(F)c(F)c1F [Compound 12],> 100,40.1,> 100,> 100,61.4,–,–,did not stimulate ER dependent transcriptional activity,–,–
COc1cc(NC(=S)c2ccccc2NC(=S)c2cc(OC)c(OC)c(OC)c2)cc(OC)c1OC [Compound 13],> 100,> 100,> 100,> 100,> 100,–,–,–,–,–
COc1ccc(NC(=S)c2cccc(NC(=S)c3ccc(OC)cc3)c2)cc1 [Compound 15],> 100,> 100,17.7,> 100,> 100,–,significant activity; also recorded: strong effect,capable to mediate ER dependent transcriptional activity in a similar mode than estradiol,strong effect,relatively low increase
COc1cc(NC(=S)c2ccc(NC(=S)c3cc(OC)c(OC)c(OC)c3)cc2)cc(OC)c1OC [Compound 16],> 100,30,69.8,> 100,6.48,–,–,did not stimulate ER dependent transcriptional activity,–,–
COc1ccc(NC(=O)c2ccc(NC(=O)c3ccc(OC)cc3)cc2)cc1 [Compound 17],> 100,> 100,> 100,> 100,> 100,–,–,–,–,–
COc1ccc(NC(=O)c2ccccc2NC(=O)COC(C)=O)cc1 [Compound 19],72.4,> 100,> 100,> 100,47.9,–,–,–,–,–
COc1cc(NC(=S)c2cccc(NC(=S)c3cc(OC)c(OC)c(OC)c3)c2)cc(OC)c1OC [Compound 20],> 100,> 100,> 100,> 100,> 100,–,–,–,–,–

# Reference: paper PMC4701221, “Novel Promising Estrogenic Receptor Modulators: Cytotoxic and Estrogenic Activity of Benzanilides and Dithiobenzanilides” (PLoS ONE, 2016)
